Measurements taken from ChEMBL document CHEMBL1128072, “The synthesis and biological evaluation of hypericin analogs” (Bioorg Med Chem Lett, 1995).
The source made the active and inactive calls. The calls are words filed in the database; no cut-off is given here.

Legend:
[1] = system: Equine infectious anemia virus; experiment: In vitro anti-retroviral activity against equine infectious anemia virus(EIAV); Inactive; assay type: functional, organism-based
[2] = system: Equine infectious anemia virus; experiment: In vitro anti-retroviral activity against equine infectious anemia virus(EIAV); compound was active; assay type: functional, organism-based

Row | SMILES | Activity [1] | Activity [2]
1 | O=c1c2c(O)cc(O)c3c4c(O)cc(O)c5c(=O)c6c(O)cc(O)c7c8c(O)cc(O)c1c8c(c23)c(c54)c67 | inactive | 
2 | Cc1c(O)c2c(=O)c3c(O)c(C)c(O)c4c5c(O)c(C)c(O)c6c(=O)c7c(O)c(C)c(O)c8c(c1O)c2c(c34)c(c78)c65 | inactive | 
3 | COc1cc(O)c2c(=O)c3c(O)cc(O)c4c5c(O)cc(O)c6c(=O)c7c(O)cc(OC)c8c1c2c(c34)c(c65)c78 |  | Active
4 | Cc1cc(O)c2c(=O)c3c(O)cc(O)c4c5c(O)cc(O)c6c(=O)c7c(O)cc(C)c8c1c2c(c34)c(c78)c65 |  | Active
